Experimental data: article PMC11311990, “Identification of Ribonuclease Inhibitors for the Control of Pathogenic Bacteria” (International Journal of Molecular Sciences, 2024)

What was measured:
[1] = target: T1, RNase R (Escherichia coli, UniProt P21499); assay type: biochemical; conditions: 10 mM compound, 10 nM enzyme, 10 nM poly(A), 1 mM MgCl2, 100 mM KCl, pH 8, 37 °C, DMSO
T1 construct: gene rnr; full-length recombinant, N-terminal His tag (pET15b derivative), expressed in E. coli BL21(DE3), IMAC purified

[2] = target: T2, RNase II (Escherichia coli, UniProt P30850); assay type: biochemical; conditions: 10 mM compound, 10 nM enzyme, 10 nM poly(A), 1 mM MgCl2, 100 mM KCl, pH 8, 37 °C, DMSO
T2 construct: gene rnb; full-length recombinant, N-terminal His tag (pET15b derivative), expressed in E. coli BL21(DE3), IMAC purified
T2 sequence (P30850 whole entry): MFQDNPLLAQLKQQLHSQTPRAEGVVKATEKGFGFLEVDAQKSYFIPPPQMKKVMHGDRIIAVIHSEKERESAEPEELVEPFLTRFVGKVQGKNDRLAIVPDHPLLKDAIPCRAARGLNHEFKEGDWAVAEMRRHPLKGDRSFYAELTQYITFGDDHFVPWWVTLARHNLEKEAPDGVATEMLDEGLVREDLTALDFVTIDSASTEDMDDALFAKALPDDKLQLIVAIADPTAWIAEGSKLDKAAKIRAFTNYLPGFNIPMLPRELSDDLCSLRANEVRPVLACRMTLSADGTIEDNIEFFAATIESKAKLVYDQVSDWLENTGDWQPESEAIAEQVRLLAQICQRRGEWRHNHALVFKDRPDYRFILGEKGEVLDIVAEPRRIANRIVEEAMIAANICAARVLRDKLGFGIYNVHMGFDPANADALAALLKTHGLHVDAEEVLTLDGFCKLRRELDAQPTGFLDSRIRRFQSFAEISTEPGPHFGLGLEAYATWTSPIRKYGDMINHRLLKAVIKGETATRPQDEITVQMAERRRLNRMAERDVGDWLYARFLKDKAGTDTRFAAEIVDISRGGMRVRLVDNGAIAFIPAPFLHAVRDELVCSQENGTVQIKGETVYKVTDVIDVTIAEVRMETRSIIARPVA

T1 sequence (P21499 2-813): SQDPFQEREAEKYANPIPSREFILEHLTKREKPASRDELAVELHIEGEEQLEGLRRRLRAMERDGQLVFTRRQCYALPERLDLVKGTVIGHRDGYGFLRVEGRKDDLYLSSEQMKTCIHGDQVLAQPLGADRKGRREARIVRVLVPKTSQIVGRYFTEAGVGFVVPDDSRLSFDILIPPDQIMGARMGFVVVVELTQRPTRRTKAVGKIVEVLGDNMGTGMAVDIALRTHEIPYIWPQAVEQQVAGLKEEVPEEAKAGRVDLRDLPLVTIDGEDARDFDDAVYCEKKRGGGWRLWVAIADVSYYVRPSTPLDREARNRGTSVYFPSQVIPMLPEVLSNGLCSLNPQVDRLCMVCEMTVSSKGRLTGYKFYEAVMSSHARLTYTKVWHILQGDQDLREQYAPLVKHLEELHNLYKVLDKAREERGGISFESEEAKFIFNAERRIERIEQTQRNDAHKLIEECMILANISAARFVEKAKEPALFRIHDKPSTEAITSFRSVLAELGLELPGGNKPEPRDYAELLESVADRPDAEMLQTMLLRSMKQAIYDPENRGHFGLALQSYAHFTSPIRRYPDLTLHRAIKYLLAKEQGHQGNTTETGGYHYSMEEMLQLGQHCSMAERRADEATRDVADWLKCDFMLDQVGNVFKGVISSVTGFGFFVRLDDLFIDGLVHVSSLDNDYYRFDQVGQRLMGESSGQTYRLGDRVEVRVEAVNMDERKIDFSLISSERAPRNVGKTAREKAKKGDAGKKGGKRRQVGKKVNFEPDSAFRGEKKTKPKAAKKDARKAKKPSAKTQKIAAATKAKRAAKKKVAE

Row | Compound | gel exoribonuclease assay, 5'-32P 35-nt poly(A) [1] | gel exoribonuclease assay, 5'-32P 35-nt poly(A) [2]
1 | Cc1nc(S)nc(O)c1Oc1cccc(C(F)(F)F)c1 [SPB04215, 2-mercapto-6-methyl-5-[3-(trifluoromethyl)phenoxy]pyrimidin-4-ol] | SPB04215 and SPB04462 compounds were also effective in inhibiting RNase R activity | with RNase II being also affected, but to a lesser extent
2 | CC(=O)Nc1nc(C)c(Oc2cccc(C(F)(F)F)c2)c(O)n1 [SPB04462, N1-{4-hydroxy-6-methyl-5-[3-(trifluoromethyl)phenoxy]pyrimidin-2-yl}acetamide] | SPB04215 and SPB04462 compounds were also effective in inhibiting RNase R activity | with RNase II being also affected, but to a lesser extent
